Assay results as given in patent US7265109B2, “Thiazole derivatives” (Hoffmann-La Roche Inc., priority 2003, dated 2007).

Target: T1, recombinant mouse NPY5-receptor (mNPY5) (Mus musculus, UniProt O70342)
T1 construct: The full-length cDNA encoding the mouse NPY5 (mNPY5) receptor was amplified from mouse brain cDNA; expressed in transfected cells; membrane preparation
T1 sequence (O70342 1-466): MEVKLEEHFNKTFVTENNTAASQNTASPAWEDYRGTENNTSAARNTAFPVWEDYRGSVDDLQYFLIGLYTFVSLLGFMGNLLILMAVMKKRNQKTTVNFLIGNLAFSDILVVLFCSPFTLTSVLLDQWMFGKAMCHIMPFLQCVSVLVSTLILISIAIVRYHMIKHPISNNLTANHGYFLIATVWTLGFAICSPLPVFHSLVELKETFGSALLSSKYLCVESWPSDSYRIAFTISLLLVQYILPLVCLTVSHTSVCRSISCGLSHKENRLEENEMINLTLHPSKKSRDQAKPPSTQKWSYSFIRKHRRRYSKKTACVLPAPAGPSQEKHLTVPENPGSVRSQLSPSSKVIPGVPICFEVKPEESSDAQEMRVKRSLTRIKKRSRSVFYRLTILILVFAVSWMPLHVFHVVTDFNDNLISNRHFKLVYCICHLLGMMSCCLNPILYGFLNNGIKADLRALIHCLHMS
Experiment: Radioligand competition binding
Conditions: membranes of HEK293 cells expressing mNPY5; 100 pM [125I]labelled peptide YY (PYY); 1 h at 22° C.; read-out: NPY5-R (mouse) IC50
Description: The full-length cDNA encoding the mouse NPY5 (mNPY5) receptor was amplified from mouse brain cDNA using specific primers, designed based on the published sequence, and Pfu DNA-Polymerase. The amplification product was subcloned into the mammalian expression vector pcDNA3 using Eco RI and XhoI restriction sites. Positive clones were sequenced and one clone, encoding the published sequence was selected for generation of stable cell clones.
Human embryonic kidney 293 (HEK293) cells were transfected with 10 μg mNPY5 DNA using the lipofectamine reagent. Two days after transfection, geneticin selection (1 mg/ml) was initiated and several stable clones were isolated. One clone was further used for pharmacological characterization.
Human embryonic kidney 293 cells (HEK293), expressing recombinant mouse NPY5-receptor (mNPY5) were broken by three freeze/thawing cycles in hypotonic Tris buffer (5 mM, pH 7.4, 1 mM MgCl2), homogenized and centrifuged at 72,000×g for 15 min. The pellet was washed twice with 75 mM Tris buffer, pH 7.4, containing 25 mM MgCl2 and 250 mM sucrose, 0.1 mM phenylmethylsulfonylfluoride and 0.1 mM 1,10-pheneanthrolin, resuspended in the same buffer and stored in aliquots at −80° C. Protein was determined according to the method of Lowry using bovine serum albumine (BSA) as a standard. […]

IC50 [nM]	Structure (SMILES)
0.85	Cc1ccccc1C(=O)c1cnc(NCC2CCN(S(=O)(=O)N(C)C)CC2)s1 [Example 18, 4-{[5-(2-Methyl-benzoyl)-thiazol-2-ylamino]-methyl}-piperidine-1-sulfonic acid dimethylamide]
0.75	CCc1ccccc1C(=O)c1cnc(NC2CCN(S(=O)(=O)c3cccs3)CC2)s1 [Example 32, (2-Ethyl-phenyl)-{2-[1-(thiophene-2-sulfonyl)-piperidin-4-ylamino]-thiazol-5-yl}-methanone]
0.77	Cc1ccccc1C(=O)c1cnc(NC2CCN(S(=O)(=O)c3cccs3)CC2)s1 [Example 41, {2-[1-(Thiophene-2-sulfonyl)-piperidin-4-ylamino]-thiazol-5-yl}-o-tolyl-methanone]
